According to US6821976B2, “S-6-hydroxy-buspirone” (Bristol-Myers Squibb Company, priority 2001, dated 2004):

Legend:
[1] = system: Harlan Sprague-Dawley rat pups; assay: Rat pup isolation-induced ultrasonic vocalization test; assay type: in vivo; settings: for anxiolytic activity (ultrasonic vocalizations emitted by rat pups): dose levels of 0.3 and 1 mg/kg s.c.
Experimental: Harlan Sprague-Dawley rat pups (male and female) were housed in polycarbonate cages with the dam until 9-11 days old. Thirty minutes before testing, pups were removed from the dam, placed into a new cage with a small amount of home bedding and brought into the lab and placed under a light to maintain body temperature at 37° C. Pups were then weighed, sexed, marked and returned to the litter group until behavioral assessment. Testing took place in a Plexiglas recording chamber that contained a metal plate maintained at (18-20° C.) with a 5×5 cm grid drawn on the plate. A microphone was suspended 10 cm above the plate to record ultrasonic vocalizations. Ultrasonic calls were recorded using the Noldus UltraVox system providing online analysis of the frequency and duration of calls. The number of grid cells entered by the pup was also collected by visual scoring. […] Immediately following the collection of the baseline measures, pups were injected with vehicle or drug subcutaneously at the nape of the neck and returned to its littermates. Thirty minutes later, pups were retested on each of the dependent measures (vocalization and grid cell crossings) to assess drug effects. Unless otherwise specified, each pup was used only once. Baseline differences and percent change from baseline for the frequency of ultrasonic vocalizations and grid cell crossings were analyzed using a one-way ANOVA. Bonferroni/Dunn post hoc comparisons were performed to assess the acute drug effects with vehicle control. Log-probit analysis was used to estimate the dose (milligrams per kilogram) of each agonist predicted to inhibit isolation-induced ultrasonic vocalizations by 50% (ID50). All comparison were made with an experimental type I error rate (α) set at 0.05.
Doses for each drug were administered in an irregular order across several litters. S-6-hydroxy-buspirone and racemic 6-hydroxy-buspirone were dissolved in physiological saline (0.9% NaCl; vehicle). All injections were administered subcutaneously in a volume of 10 ml/kg. Doses of the drug refer to weight of the salt.

[2] = Pharmacokinetic studies with 6-hydroxy-buspirone, clearance from the bloodstream; settings: in vivo
human 5-HT1A receptor = target: T1, human 5-HT1A receptor (Homo sapiens, UniProt P08908); assay: 5-HT1A receptor binding assay; settings: preclinical studies
T1 construct: expressed in transfected cells; host or cells: HEK293 cells
T1 sequence (P08908 1-422): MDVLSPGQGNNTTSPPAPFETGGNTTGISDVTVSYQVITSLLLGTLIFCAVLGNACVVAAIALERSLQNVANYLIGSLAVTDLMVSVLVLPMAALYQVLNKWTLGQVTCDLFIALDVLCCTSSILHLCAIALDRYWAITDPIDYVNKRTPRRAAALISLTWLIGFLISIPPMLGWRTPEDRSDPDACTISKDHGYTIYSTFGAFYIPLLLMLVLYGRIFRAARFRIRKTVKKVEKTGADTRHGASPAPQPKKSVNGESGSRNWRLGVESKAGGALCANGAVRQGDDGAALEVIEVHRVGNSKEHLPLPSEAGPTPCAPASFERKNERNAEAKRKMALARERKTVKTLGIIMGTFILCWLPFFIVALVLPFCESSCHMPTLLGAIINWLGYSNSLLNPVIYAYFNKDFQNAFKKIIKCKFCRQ
Experimental: Membranes are prepared for binding using the human 5-HT1A receptor expressed in HEK293 cells. Cells are collected and ruptured using a dounce homogenizer. The cells are spun at 18000×g for 10 minutes and the pellet is resuspended in assay buffer, frozen in liquid nitrogen and kept at −80° C. until the day of the assay.
A total of 30 ug protein is used per well. The assay is carried out in 96-deep-well plates. The assay buffer is 50 mM HEPES containing 2.5 mM MgCl2 and 2 mM EGTA. The membrane preparation is incubated at 25° C. for 60 minutes with 0.1 nM to 1000 nM test compound and 1 nM 3H-8-OH-DPAT. […] serotonin serves as blocking agent to determine non-specific binding. The reaction is terminated by the addition of 1 ml of ice cold 50 mM HEPES buffer and rapid filtration through a Brandel Cell Harvester using Whatman GF/B filters. The filter pads are counted in an LKB Trilux liquid scintillation counter. IC50 values are determined using non-linear regression by Excel-fit.

[3] = Clinical studies in volunteers orally dosed with buspirone, blood plasma levels; assay type: in vivo, human; settings: compared to buspirone blood plasma levels

SMILES | anxiolytic activity (ultrasonic vocalizations emitted by rat pups) [1] | clearance from the bloodstream compared with the R-enantiomer [2] | reduced clearance of S- over R- [2] | affinity for the human 5-HT1A receptor (human 5-HT1A receptor) | anxiolytic response in the rat pup ultrasonic vocalization test ([1]; functional testing) | animal movement, measured by crossing grid boundary lines ([1]; rat pups, compared to the animals dosed with the single enantiomer) | time course of blood plasma levels [3]
O=C1CC2(CCCC2)[C@H](O)C(=O)N1CCCCN1CCN(c2ncccn2)CC1 [S-6-hydroxy-buspirone] | Statistically significant anxiolytic activity | cleared more slowly | about three-fold |  |  |  | 
O=C1CC2(CCCC2)CC(=O)N1CCCCN1CCN(c2ncccn2)CC1 [buspirone] |  |  |  | strong affinity |  |  | 
O=C1CC2(CCCC2)C(O)C(=O)N1CCCCN1CCN(c2ncccn2)CC1 (racemic) [6-hydroxy-buspirone] | Statistically significant anxiolytic activity |  |  | strong affinity | dose-dependent anxiolytic response | appeared to be reduced | sustained
